System: T1, PEXANL1
T1 construct: gene EXANL1; recombinant extracellular lipase, secreted/purified from Pichia pastoris GS115
Test: p-nitrophenol release at […] nm, Lineweaver-Burk
Format: biochemical, Aspergillus niger
Settings: free enzyme; pH 5.0, 45 °C; 5-30 mM substrate range; phosphate-citrate buffer, substrate stock in 2-propanol

## CCCCCCCCCCCCCCCC(=O)Oc1ccc([N+](=O)[O-])cc1 [p-nitrophenyl palmitate]
  Km: 2.65 mM

Reference: PMC10894092, “Characterization of a recombinant Aspergillus niger GZUF36 lipase immobilized by ionic liquid modification strategy” (Applied Microbiology and Biotechnology, 2024)
